Measured values as given in US20110171666A1, “PEPTIDE-LIPID CONSTRUCTS AND THEIR USE IN DIAGNOSTIC AND THERAPEUTIC APPLICATIONS” (priority 2007, published 2011).
Groups on a side chain read outwards from the residue. Primed or numbered codes have the meaning given here. No end group written: not given here. *: point of attachment. DOPE = CCCCCCCC/C=C\CCCCCCCC(=O)OC[C@H](COP(=O)(O)OCCN*)OC(=O)CCCCCCC/C=C\CCCCCCCC; S1 PEG = not defined here; PEG6′ = not defined here; Mal = not defined here; Mal″ = maleimide; βAla = NCCC(=O)O

Columns and labels:
[1] = test system: Miltenberger Antibody Positive Panel (polyclonal sera and monoclonal antibodies); test: Reactivity of construct-modified RBCs against the Miltenberger Antibody Positive Panel; assay type: cell-based, human; set-up: key: 0 or ‘−’=no agglutination; 0 or ‘−’=no agglutination; 1+ or 3=very weak agglutination; 1+ or 3=very weak agglutination; 2+ or 5=weak agglutination; 2+ or 5=weak agglutination; 3+ or 8=moderate strong agglutination; 3+ or 8=moderate strong agglutination; 4+ or 10/12=strong agglutination; 4+ or 10/12=strong agglutination; 4+ or 10/12=strong agglutination
Procedure: Red blood cells are modified by mixing 1 part by volume of washed packed red blood cells with 1 part by volume of peptide-lipid construct dispersed at a concentration of 10 to 1000 μg/ml in cell media (Celpresol™).
(§1) The suspensions are either: • 1. incubated for 2 hours at 37° C. before being washed and suspended in a cell medium for serological analysis at a concentration of 0.8 to 3% (Method 1); or • 2. incubated for 3 to 4 hours at room temperature (circa 25° C.) followed by 18 hours at 4° C. before being washed and suspended in a cell medium for serological analysis at a concentration of 0.8 to 3% (Method 2).
(§2) Serological reactions are graded or scored by either of two established systems (0 or ‘−’=no agglutination, 1+ or 3=very weak agglutination, 2+ or 5=weak agglutination, 3+ or 8=moderate strong agglutination, 4+ or 10/12=strong agglutination)
(§3) Serological platforms used are Tube (addition of reagents and reactants into plastic or glass serology tubes and after appropriate incubations, washing and centrifugation observing reactions macroscopically by eye and a 10× magnification eyepiece and scoring) and BioVue™ (addition of reactants into cassettes containing beads (including some reactants) and after appropriate incubations and centrifugation observing the reaction patterns traped within the Gel matrix). BioVue is the serological column agglutination platform of Ortho-Clinical Diagnostics.

[2] = test system: sera reactive with modified RBCs; test: Neutralisation of reactive sera with peptide and retest against modified RBCs (BioVue cards); assay type: cell-based, human; set-up: key: 0 or ‘−’=no agglutination; 0 or ‘−’=no agglutination; 1+ or 3=very weak agglutination; 1+ or 3=very weak agglutination; 2+ or 5=weak agglutination; 2+ or 5=weak agglutination; 3+ or 8=moderate strong agglutination; 3+ or 8=moderate strong agglutination; 4+ or 10/12=strong agglutination; 4+ or 10/12=strong agglutination; 4+ or 10/12=strong agglutination; details: for reactivity score, serum + peptide: RBCs modified at 500 μg/ml (Method 1)
Procedure: as §1, §2, §3
Where false positives were observed these could be substantially eliminated by pre-treatment of the sample of serum with the peptide of the peptide-lipid constructs (Table 10 and 11).

[3] = MUT constructs, μg/ml used: M1 500, M2 500, M3 1000, M13 250, M21 200
[4] = MUR constructs, RBCs modified at 100 ug/ml

Substance	reactivity score of modified RBCs vs 2 T217 [1, 3]	reactivity score of modified RBCs vs 3 T165 [1, 3]	reactivity score of modified RBCs vs 4 T7202 [1, 3]	reactivity score of modified RBCs vs 6 T6025 [1, 3]	reactivity score of modified RBCs vs 7 T8445 [1, 3]	reactivity score of modified RBCs vs 8 T5896 [1, 3]	reactivity score of modified RBCs vs 9 MIII monoclonal antibody [1, 3]	reactivity score of modified RBCs vs 10 Mia monoclonal antibody [1, 3]	reactivity score of modified RBCs vs 11 Mur monoclonal antibody [1, 3]	reactivity score of modified RBCs vs 12 Gam monoclonal antibody [1, 3]	reactivity score of modified RBCs vs 2 T217 [1, 4]	reactivity score of modified RBCs vs 3 T165 [1, 4]	reactivity score of modified RBCs vs 4 T7202 [1, 4]	reactivity score of modified RBCs vs 6 T6025 [1, 4]	reactivity score of modified RBCs vs 7 T8445 [1, 4]	reactivity score of modified RBCs vs 8 T5896 [1, 4]	reactivity score of modified RBCs vs 9 MIII monoclonal antibody [1, 4]	reactivity score of modified RBCs vs 10 Mia monoclonal antibody [1, 4]	reactivity score of modified RBCs vs 11 Mur monoclonal antibody [1, 4]	reactivity score of modified RBCs vs 12 Gam monoclonal antibody [1, 4]	further results
DOPE-PEG6-βAla-Mal-13MUTK (SSQTNDKHKRDTYC([Mal-βAla-PEG6′-DOPE]); reading uncertain; also: printed as DOPE-PEG6-βAla-Mal-13MUTK) [M13]	8	0	8	8	0	3	0	0	0	0											reactivity score of modified RBCs vs 13 BoxH [1, 3]: 8; reactivity score, serum alone ([2]; serum #3, RBCs modified at 500 μg/ml (Method 1)): 8; reactivity score, serum + peptide ([2]; serum #3 neutralised with peptide SSQTNDKHKRDTY): 0; reactivity score, serum alone ([2]; serum #34, RBCs modified at 500 μg/ml (Method 1)): 8; reactivity score, serum + peptide ([2]; serum #34 neutralised with peptide SSQTNDKHKRDTY): 0; reactivity score, serum alone ([2]; serum #37, RBCs modified at 500 μg/ml (Method 1)): 8; reactivity score, serum + peptide ([2]; serum #37 neutralised with peptide SSQTNDKHKRDTY): 0; reactivity score, serum alone ([2]; serum #42, RBCs modified at 500 μg/ml (Method 1)): 8; reactivity score, serum + peptide ([2]; serum #42 neutralised with peptide SSQTNDKHKRDTY): 0
M16: DOPE peptide-lipid construct, Mur peptide ThrTyrProAlaHisThrAlaAsnGluVal with terminal Cys, S1 PEG (Table 7) (TYPAHTANEVC([S1 PEG-DOPE]); reading uncertain)											0	10	5	5	12	0	0	0	0	0	reactivity score of modified RBCs vs 13 BoxH [1, 4]: 0
DOPE-PEG6-βAla-Mal-18Mur (PAHTANEVC([Mal″-βAla-PEG6′-DOPE])) [M18]											0	10	0	10	8	0	0	0	0	0	
DOPE-PEG6-βAla-Mal-21MUTK (SQTNDKHKRDC([Mal″-βAla-PEG6′-DOPE])) [M21]	0	8	0	8	0	0	0	0	0	3											reactivity score of modified RBCs vs 15 TAP2 [1, 3]: 5
